We go through four compounds from patent US9353144B2, “Vascular leakage inhibitor” (INDUSTRY-ACADEMIC COOPERATION FOUNDATION, YONSEI UNIVERSITY, priority 2011, dated 2016).

Structures are written as SMILES.

Experiment [1] relates to HRECs (Human Retinal Endothelial Cells). Put plainly: Screening of synthesized derivatives for ability to inhibit serum depletion-induced vascular endothelial cell apoptosis (MTT assay, cell morphology). Type of experiment: cell-based. The note with it: serum-free, 10 μg/ml; for ability to inhibit apoptosis, ranking among synthetic derivatives and control groups: comparison with control groups; for ability to inhibit apoptosis compared with Sac-1004: relative to control Sac-1004. As to the method:
FIGS. 1a-1c and FIGS. 2a-2c show the result of screening Rk1 analogs that protect HRECs (Human Retinal Endothelial Cells) from serum depletion-induced apoptosis. HRECs (3×10^5 cells/well) were seeded on a 24-well plate in EGM9 medium containing 20% fetal bovine serum. The next day, the cells were transferred to a medium containing 10 μg/mL of the synthesized compound. Cell viability was determined by MTT assay 48 hours later. […] Con is indicative of cells treated with DMSO.
(§1) Human retinal endothelial cells (HRECs) purchased from Cell Systems (USA) were seeded on a 100 mm culture dish containing EGM medium (Life Technologies, USA) containing 20% (w/v) fetal bovine serum (FBS, HyClone, Canada), 100 units/mL penicillin (Invitrogen, USA), 100 μg/mL streptomycin (Invitrogen, USA), 3 ng/mL fibroblast growth factor (Upstate Biotechnology, USA) and 5 units/mL heparin and cultured in a 5% CO2 incubator at 37° C.
Based on the previous researches conducted by the present inventors, synthesized derivatives of Rk1 having a steroid backbone and having an ability to inhibit vascular endothelial cell apoptosis were screened. Vascular endothelial cells HRECs (3×10^5 cells/well) were plated on a 24-well plate in which 1 ml of EGM medium containing 20% fetal bovine serum was present. The next day, the cells were transferred to serum-free EGM media containing 10 μg/ml of the compounds synthesized in Synthetic Examples 1 and 2. After 24 hours, cell viability was determined by MTT assay (Mosmann T, Journal of Immunological Methods 65(1-2):5563(1983); Cory A H, et al., Cancer Communications 3(7):20712(1991)).
(Tetrazolium dyes change colour on reduction, which living cells bring about.)

Experiment [2] has the same test system. Put plainly: Ability to inhibit apoptosis of Sac-1009, Sac-1104 and Sac-1019 according to concentration (serum removal, MTT assay). Type of experiment: cell-based. The note with it: for inhibition of apoptosis of HRECs, concentration dependence: serum-free EGM, 0, 0.1, 1, 5 and 10 μg/ml; for inhibition of apoptosis of HRECs, concentration dependence / concentration of the most effective ability to inhibit apoptosis: MTT after 48 hours, FIG. 3; for concentration of the most effective ability to inhibit apoptosis: serum-free EGM, tested 0-10 μg/ml; for cell viability of HRECs in a serum depletion environment: summary of test examples 1 and 2. As to the method:
HRECs (3×10^5 cells/well) were seeded on a 24-well plate in EGM medium containing 20% fetal bovine serum. The next day, the cells were transferred to a serum depletion EGM medium containing Sac-1009, Sac-1104 or Sac-1019. Sac-1009, Sac-1104 and Sac-1019 were added into the medium at a concentration of 0, 0.1, 1, 5 or 10 μg/mL, respectively. Cell viability was determined by MTT assay 48 hours later.
as §1
After apoptosis was induced by removing serum from the medium of vascular endothelial cells, Sac-1009, Sac-1104, and Sac-1019 were applied to cells to measure the ability to inhibit apoptosis. Vascular endothelial cells HRECs (3×10^5 cells/well) were plated on a 24-well plate in which 1 ml of EGM medium containing 20% fetal bovine serum was present. The next day, the cells were transferred to serum-free EGM media containing Sac-1009, Sac-1104, and Sac-1019. Sac-1009, Sac-1104, and Sac-1019 were added at concentrations of 0, 0.1, 1, 5, and 10 μg/ml. After 48 hours, cell viability was determined by MTT assay.

Experiment [3] has the same test system. Put plainly: Screening based on change in cytoskeleton: VEGF-induced actin stress fibers, rhodamine phalloidin staining. The note with it: for ability to inhibit the formation of actin stress fibers induced by VEGF: confluent HRECs pretreated with 10 μg/mL compound for 1 hour before 20 ng/ml VEGF, FIGS. 4 and 5; for abilities to inhibit the formation of actin stress fibers induced by VEGF and maintain the cortical actin ring structure, ranking: confluent HRECs, pretreated 1 hour, 20 ng/ml VEGF. Type of experiment: cell-based. As to the method:
Confluent HRECs were pretreated with the compounds (10 μg/mL) for 60 minutes before treating with 20 ng/mL VEGF. The cells were then stained with rhodamine phalloidin.
as §1
It is known that the change in the actin structure of the cytoskeleton is closely related with the permeability of vascular endothelial cells. Increased permeability of vascular endothelial cells leads to an increase in actin stress fibers and a decrease in cortical actin ring structures. Based on this, the ability to inhibit vascular endothelial permeability of the synthesized derivatives of Rk1 was screened. Confluent HRECs were pretreated with […] the synthesized compounds for 1 hour before the treatment with 20 ng/ml VEGF (Upstate Biotechnology). Then, the cells were fixed with 4% paraformaldehyde for 20 minutes at room temperature, and washed 3 times with PBS (pH 7.4). Then, the cells were permeabilized with 0.1% Triton X-100/PBS, and reacted with 0.1 mg/ml rhodamine phalloidin (Molecular Probes) for 1 hour. Then, the cells were observed under a fluorescence microscope (Olympus).

The test system is the same in experiment [4]. The note with it: cited from earlier work; for ability to inhibit apoptosis (derivatives of previous researches, control groups): obtained in the previous researches by the inventors (Korean Patent Application Publication No. 2011-0047170); for ability to inhibit apoptosis, comparison in the previous researches: relative to Rk1 or to other earlier derivatives.

In the case of `CC(=O)OC[C@H]1OC(O[C@H]2CC[C@@]3(C)C(=CCC4C3CC[C@@]3(C)C4CC[C@@H]3/C(C)=N/OC3C=CCCC3)C2)C=C[C@@H]1OC(C)=O` (stereo partly drawn) [Sac-1104], in experiment [1], the “ability to inhibit apoptosis, ranking among synthetic derivatives and control groups” value is recorded as “the most excellent”; the “ability to inhibit apoptosis compared with Sac-1004” value is given as “equivalent to that of Sac-1004”. Further, in experiment [2], the “inhibition of apoptosis of HRECs, concentration dependence” value is recorded as “concentration-dependent manner”; the “concentration of the most effective ability to inhibit apoptosis” value came out at 10 µg/mL; the “cell viability of HRECs in a serum depletion environment” value was “increase cell viability”. Moreover, in experiment [3], the “ability to inhibit the formation of actin stress fibers induced by VEGF” value was “inhibit the formation of actin stress fibers induced by VEGF”; the “abilities to inhibit the formation of actin stress fibers induced by VEGF and maintain the cortical actin ring structure, ranking” value is reported as “the most excellent”.
As for `CC(=O)OC[C@H]1OC(O[C@H]2CC[C@@]3(C)C(=CCC4C3CC[C@@]3(C)C4CC[C@@H]3/C(C)=N/OC3CCCC3)C2)C=C[C@@H]1OC(C)=O` (stereo partly drawn) [Sac-1019], in experiment [1], the “ability to inhibit apoptosis, ranking among synthetic derivatives and control groups” value is on record as “the most excellent”; the “ability to inhibit apoptosis compared with Sac-1004” value is given as “equivalent to that of Sac-1004”. Further, in experiment [2], the “inhibition of apoptosis of HRECs, concentration dependence” value is listed as “concentration-dependent manner”; the “concentration of the most effective ability to inhibit apoptosis” value turned out to be 10 µg/mL; the “cell viability of HRECs in a serum depletion environment” value is given as “increase cell viability”. For the same compound, in experiment [3], the “ability to inhibit the formation of actin stress fibers induced by VEGF” value is “inhibit the formation of actin stress fibers induced by VEGF”; the “abilities to inhibit the formation of actin stress fibers induced by VEGF and maintain the cortical actin ring structure, ranking” value is recorded as “the most excellent”.
As to `CC(=O)OCC1OC(OC2CCC3(C)C(=CCC4C3CCC3(C)C(C(C)CCCC(C)C)CCC43)C2)C=CC1OC(C)=O` (stereo not drawn) [Sac-0601], in experiment [4], the “ability to inhibit apoptosis (derivatives of previous researches, control groups)” value is listed as “having an ability to inhibit apoptosis” and the “ability to inhibit apoptosis, comparison in the previous researches” value was “equivalent to that of Rk1”.
For the compound `COC(=O)CCC/C=C(\C)[C@H]1CCC2C3CC=C4C[C@@H](OC5C=C[C@H](OC(C)=O)[C@@H](COC(C)=O)O5)CC[C@]4(C)C3CC[C@@]21C` (stereo partly drawn) [Sac-1004], in experiment [4], the “ability to inhibit apoptosis (derivatives of previous researches, control groups)” value is “having an ability to inhibit apoptosis” and the “ability to inhibit apoptosis, comparison in the previous researches” value is given as “the most excellent”.
